This data set deals with CCRIS mutagenicity, Ames/micronucleus/aberration tests. In words: CCRIS mutagenicity studies.
Where [1] appears, read: Test System: AMES SALMONELLA TYPHIMURIUM, Strain/Indicator: TA98, Metabolic Activation: NONE, Method: PREINCUBATION
The mark [2] stands for this setting: Test System: AMES SALMONELLA TYPHIMURIUM, Strain/Indicator: TA100, Metabolic Activation: NONE, Method: PREINCUBATION

Activity calls are given as the source filed them. The rule behind the calls is not given here.

On to `c1ccc(COCc2ccccc2)cc1`, for which the mutagenic call (Test System: AMES SALMONELLA TYPHIMURIUM, Strain/Indicator: TA97, Metabolic Activation: HAMSTER, LIVER, S-9, AROCLOR 1254 (10 OR 30%), Method: PREINCUBATION) is “inactive; negative”; the mutagenic call (Test System: AMES SALMONELLA TYPHIMURIUM, Strain/Indicator: TA97, Metabolic Activation: NONE, Method: PREINCUBATION) is “inactive; negative”; the mutagenic call (Test System: AMES SALMONELLA TYPHIMURIUM, Strain/Indicator: TA97, Metabolic Activation: RAT, LIVER, S-9, AROCLOR 1254 (10 OR 30%), Method: PREINCUBATION) was “inactive; negative”; the mutagenic call (Test System: AMES SALMONELLA TYPHIMURIUM, Strain/Indicator: TA98, Metabolic Activation: HAMSTER, LIVER, S-9, AROCLOR 1254 (10 OR 30%), Method: PREINCUBATION) was “inactive; negative”; the mutagenic call under setting [1] was “inactive; negative”; the mutagenic call (Test System: AMES SALMONELLA TYPHIMURIUM, Strain/Indicator: TA98, Metabolic Activation: RAT, LIVER, S-9, AROCLOR 1254 (10 OR 30%), Method: PREINCUBATION) was “inactive; negative”. Also, the mutagenic call was “inactive; negative” (Test System: AMES SALMONELLA TYPHIMURIUM, Strain/Indicator: TA98, Metabolic Activation: RAT, LIVER, S-9, AROCLOR 1254 (30%), Method: PREINCUBATION); “inactive; negative” (Test System: AMES SALMONELLA TYPHIMURIUM, Strain/Indicator: TA100, Metabolic Activation: HAMSTER, LIVER, S-9, AROCLOR 1254 (10%), Method: PREINCUBATION); “inactive; negative” (Test System: AMES SALMONELLA TYPHIMURIUM, Strain/Indicator: TA100, Metabolic Activation: HAMSTER, LIVER, S-9, AROCLOR 1254 (30%), Method: PREINCUBATION); “inactive; negative” under setting [2]; “inactive; negative” (Test System: AMES SALMONELLA TYPHIMURIUM, Strain/Indicator: TA100, Metabolic Activation: RAT, LIVER, S-9, AROCLOR 1254 (10%), Method: PREINCUBATION); “inactive; negative” (Test System: AMES SALMONELLA TYPHIMURIUM, Strain/Indicator: TA100, Metabolic Activation: RAT, LIVER, S-9, AROCLOR 1254 (30%), Method: PREINCUBATION). For the same molecule, the mutagenic call is, setting by setting: (Test System: AMES SALMONELLA TYPHIMURIUM, Strain/Indicator: TA1535, Metabolic Activation: HAMSTER, LIVER, S-9, AROCLOR 1254 (10 OR 30%), Method: PREINCUBATION) “inactive; negative”; (Test System: AMES SALMONELLA TYPHIMURIUM, Strain/Indicator: TA1535, Metabolic Activation: NONE, Method: PREINCUBATION) “inactive; negative”; (Test System: AMES SALMONELLA TYPHIMURIUM, Strain/Indicator: TA1535, Metabolic Activation: RAT, LIVER, S-9, AROCLOR 1254 (10 OR 30%), Method: PREINCUBATION) “inactive; negative”.

Consider `O=[As]O`, for which the mutagenic call by setting is: (End Point: IN VITRO CHROMOSOMAL ABERRATIONS, Test System: CHINESE HAMSTER OVARY (CHO), Metabolic Activation: NONE) “active; positive (structural changes: breaks, exchanges, endoreduplication)”; (End Point: IN VITRO CHROMOSOMAL ABERRATIONS, Test System: HUMAN FIBROBLAST (HFW), Metabolic Activation: NONE) “active; positive (structural changes: breaks, fusion)”; (End Point: IN VITRO CHROMOSOMAL ABERRATIONS, Test System: HUMAN LYMPHOCYTES, Metabolic Activation: NONE, Method: FISH) “active; positive (hyperdiploidy)”; (End Point: IN VITRO CHROMOSOMAL ABERRATIONS, Test System: V79-C13 CHINESE HAMSTER CELLS, Metabolic Activation: NONE) “inactive; negative”; (End Point: IN VITRO MICRONUCLEUS, Test System: CHINESE HAMSTER OVARY CELLS, Metabolic Activation: NONE) “active; positive”; (End Point: IN VITRO MICRONUCLEUS, Test System: CHINESE HAMSTER V-79, Metabolic Activation: NONE) “active; positive”. Moreover, the mutagenic call was “active; positive” (End Point: IN VITRO MICRONUCLEUS, Test System: HUMAN FIBROBLASTS VH25 CELLS, Metabolic Activation: NONE); “active; positive” (End Point: IN VITRO MICRONUCLEUS, Test System: V79-C13 CHINESE HAMSTER CELLS, Metabolic Activation: NONE); “active; positive” (End Point: In vitro chromosomal aberrations, Test System: Human peripheral lymphocytes, Metabolic Activation: None); “active; positive” (End Point: In vitro micronucleus, Test System: Human peripheral lymphocytes, Metabolic Activation: None); “active; positive” (End Point: In vivo micronucleus, Test System: Bone marrow polychromatic erythrocytes, Species: Mouse, Strain/Sex: C57BL/6J/Han/Male, Route: Oral); “inactive; negative” (Test System: AMES SALMONELLA TYPHIMURIUM, Strain/Indicator: TA102, Metabolic Activation: NONE, Method: STANDARD PLATE). Moreover, the mutagenic call (Test System: MOUSE LYMPHOMA, Strain/Indicator: L5178Y (TK+/TK-), Metabolic Activation: NONE, Method: SUSPENSION/PLATE) is “active; positive” and the mutagenic call (Test System: Mouse lymphoma, Strain/Indicator: L5178Y (TK+/TK-), Metabolic Activation: None, Method: Microwell) was “active; positive (statistically significant at 2 highest doses)”.

For `[O]=[Cr][O][Cr]=[O]`, the mutagenic call (Test System: CHINESE HAMSTER V-79, Strain/Indicator: V-79/6-THIOGUANINE, Metabolic Activation: NONE) is “active; positive”.

Turning to `NCCN1CCNCC1`, the mutagenic call is, setting by setting: under setting [1], “inactive; negative”; (Test System: AMES SALMONELLA TYPHIMURIUM, Strain/Indicator: TA98, Metabolic Activation: NONE, Method: STANDARD PLATE) “inactive; negative”; (Test System: AMES SALMONELLA TYPHIMURIUM, Strain/Indicator: TA98, Metabolic Activation: RAT, LIVER, S-9, AROCLOR 1254, Method: STANDARD PLATE) “inactive; negative”; (Test System: AMES SALMONELLA TYPHIMURIUM, Strain/Indicator: TA98, Metabolic Activation: RAT, LIVER, S-9, PCB, Method: PREINCUBATION) “inactive; negative”; under setting [2], “inactive; negative”; (Test System: AMES SALMONELLA TYPHIMURIUM, Strain/Indicator: TA100, Metabolic Activation: NONE, Method: STANDARD PLATE) “inactive; negative”. For the same molecule, the mutagenic call by setting is: (Test System: AMES SALMONELLA TYPHIMURIUM, Strain/Indicator: TA100, Metabolic Activation: RAT, LIVER, S-9, AROCLOR 1254, Method: STANDARD PLATE) “inactive; negative”; (Test System: AMES SALMONELLA TYPHIMURIUM, Strain/Indicator: TA100, Metabolic Activation: RAT, LIVER, S-9, PCB, Method: PREINCUBATION) “inactive; negative”; (Test System: AMES SALMONELLA TYPHIMURIUM, Strain/Indicator: TA1535, Metabolic Activation: NONE, Method: STANDARD PLATE) “inactive; negative”; (Test System: AMES SALMONELLA TYPHIMURIUM, Strain/Indicator: TA1535, Metabolic Activation: RAT, LIVER, S-9, AROCLOR 1254, Method: STANDARD PLATE) “inactive; negative”; (Test System: AMES SALMONELLA TYPHIMURIUM, Strain/Indicator: TA1537, Metabolic Activation: NONE, Method: STANDARD PLATE) “inactive; negative”; (Test System: AMES SALMONELLA TYPHIMURIUM, Strain/Indicator: TA1537, Metabolic Activation: RAT, LIVER, S-9, AROCLOR 1254, Method: STANDARD PLATE) “inactive; negative”. Also, the mutagenic call was “inactive; negative” (Test System: AMES SALMONELLA TYPHIMURIUM, Strain/Indicator: TA1538, Metabolic Activation: NONE, Method: STANDARD PLATE); “inactive; negative” (Test System: AMES SALMONELLA TYPHIMURIUM, Strain/Indicator: TA1538, Metabolic Activation: RAT, LIVER, S-9, AROCLOR 1254, Method: STANDARD PLATE); “inactive; negative” (Test System: UDS RAT HEPATOCYTES, Strain/Indicator: THY INCORP, Metabolic Activation: NONE, Method: SCINTILLATION SPECTROMETRY).

With `Cc1ccc(C2CO2)cc1` (stereo unspecified), where the note is “Test System: E. COLI, Strain/Indicator: WP2 UVRA, Metabolic Activation: NONE, Method: STANDARD PLATE”, the mutagenic call was “active; positive”.
